The values that follow come from ChEMBL document CHEMBL5726876, “NHE3-binding compounds and methods for inhibiting phosphate transport” (2019).

The term IC50 denotes the concentration needed to halve the response being measured.

A value given as a limit tells only on which side of the number the result lay.

The nature of the assay: Cell-based activity under Prompt Conditions: Cell-based activity under Prompt Conditions. Rat or human NHE3-mediated Na+-dependent H+ antiport was measured using a modification of the pH sensitive dye method originally reported by Paradiso (PNAS USA. 81:7436-7440, 1984). Opossum kidney (OK) cells were obtained from the ATCC and propagated per their instructions. The rat NHE3 gene (GenBank M85300) or the human NHE3 gene (GenBank NM_004174.1) was introduced into OK cells via electroporation, and cells were seeded into 96 well plates and grown overnight. Medium was aspirated from the wells, cells were washed twice with NaCl-HEPES buffer (100 mM NaCl, 50 mM HEPES, 10 mM glucose, 5 mM KCl, 2 mM CaCl2, 1 mM MgCl2, pH 7.4), then incubated for 30 min at room temperature with NH4Cl-HEPES buffer (20 mM NH4Cl, 80 mM NaCl, 50 mM HEPES, 5 mM KCl, 2 mM CaCl2, 1 mM MgCl2, pH 7.4) containing 5 μM bis(acetoxymethyl) 3,3′-(3′,6′-bis(acetoxymethoxy)-5-((acetoxymethoxy)carbonyl)-3-oxo-3H-spiro[isobenzofuran-1,9′-xanthene]-2′,7′-diyl)dipropanoate (BCECF-AM).Cells were washed twice with Ammonium free, Na+-free HEPES (100 mM choline, 50 mM HEPES, 10 mM glucose, 5 mM KCl, 2 mM CaCl2, 1 mM MgCl2, pH 7.4) and incubated in the same buffer for 10 minutes at room temperature to lower intracellular pH. […] Initial rates were plotted as the average 2 or more replicates, and pIC50 values were estimated using GraphPad Prism.

For `CN1Cc2c(Cl)cc(Cl)cc2[C@H](c2cccc(S(=O)(=O)NCCOCCOCCOCCn3cc(CN(Cc4cn(CCOCCOCCOCCNS(=O)(=O)c5cccc([C@@H]6CN(C)Cc7c(Cl)cc(Cl)cc76)c5)nn4)Cc4cnnn4CCOCCOCCOCCNS(=O)(=O)c4cccc([C@@H]5CN(C)Cc6c(Cl)cc(Cl)cc65)c4)nn3)c2)C1`, the IC50 was 5010 nM.
The same measure for `CN1Cc2c(Cl)cc(Cl)cc2[C@H](c2cccc(S(=O)(=O)NCCOCCOCCOCCNC(=O)CC(O)(CC(=O)NCCOCCOCCOCCNS(=O)(=O)c3cccc([C@@H]4CN(C)Cc5c(Cl)cc(Cl)cc54)c3)C(=O)NCCOCCOCCOCCNS(=O)(=O)c3cccc([C@@H]4CN(C)Cc5c(Cl)cc(Cl)cc54)c3)c2)C1`: 100 nM; for `NCCOCCOCCNS(=O)(=O)c1ccc(O[C@H]2c3ccccc3C[C@@H]2N2CCCCC2)cc1`: 447 nM; for `CN1Cc2c(Cl)cc(Cl)cc2[C@H](c2cccc(S(=O)(=O)NCCOCCOCCOCCNC(=O)CN3CCN(CC(=O)NCCOCCOCCOCCNS(=O)(=O)c4cccc([C@@H]5CN(C)Cc6c(Cl)cc(Cl)cc65)c4)CCN(CC(=O)NCCOCCOCCOCCNS(=O)(=O)c4cccc([C@@H]5CN(C)Cc6c(Cl)cc(Cl)cc65)c4)CCN(CC(=O)NCCOCCOCCOCCNS(=O)(=O)c4cccc([C@@H]5CN(C)Cc6c(Cl)cc(Cl)cc65)c4)CC3)c2)C1`: 501 nM.
The figure for `CN1Cc2c(Cl)cc(Cl)cc2[C@H](c2cccc(S(=O)(=O)NCCOCCOCCOCCNC(=O)CN(CC(=O)NCCOCCOCCOCCNS(=O)(=O)c3cccc([C@@H]4CN(C)Cc5c(Cl)cc(Cl)cc54)c3)CC(=O)NCCOCCOCCOCCNS(=O)(=O)c3cccc([C@@H]4CN(C)Cc5c(Cl)cc(Cl)cc54)c3)c2)C1` is 79.4 nM; for `CN1Cc2c(Cl)cc(Cl)cc2[C@H](c2cccc(S(=O)(=O)NCCOCCOCCNC(=O)CN(CC(=O)NCCOCCOCCNS(=O)(=O)c3cccc([C@@H]4CN(C)Cc5c(Cl)cc(Cl)cc54)c3)CC(=O)NCCOCCOCCNS(=O)(=O)c3cccc([C@@H]4CN(C)Cc5c(Cl)cc(Cl)cc54)c3)c2)C1` it is 501 nM; for `O=C(NCCCCNC(=O)NCCOCCOCCNS(=O)(=O)c1ccc(O[C@H]2c3cc(Cl)cc(Cl)c3C[C@@H]2N2CCCCC2)cc1)NCCOCCOCCNS(=O)(=O)c1ccc(O[C@H]2c3cc(Cl)cc(Cl)c3C[C@@H]2N2CCCCC2)cc1` it is less than 10000 nM.
The figure for `CN(CC(=O)NCCOCCOCCNS(=O)(=O)c1ccc(O[C@H]2c3ccccc3C[C@@H]2N2CCCCC2)cc1)CC(=O)NCCOCCOCCNS(=O)(=O)c1ccc(O[C@H]2c3ccccc3C[C@@H]2N2CCCCC2)cc1` is 35.5 nM; for `CN1Cc2c(Cl)cc(Cl)cc2[C@H](c2cccc(S(=O)(=O)NCCOCCOCCOCCNC(=O)c3cc(C(=O)NCCOCCOCCOCCNS(=O)(=O)c4cccc([C@@H]5CN(C)Cc6c(Cl)cc(Cl)cc65)c4)cc(C(=O)NCCOCCOCCOCCNS(=O)(=O)c4cccc([C@@H]5CN(C)Cc6c(Cl)cc(Cl)cc65)c4)c3)c2)C1` it is 126 nM.
Consider `CN1Cc2c(Cl)cc(Cl)cc2[C@H](c2cccc(S(=O)(=O)NCCOCCOCCOCCNC(=O)CN3CCN(c4nc(N5CCN(CC(=O)NCCOCCOCCOCCNS(=O)(=O)c6cccc([C@@H]7CN(C)Cc8c(Cl)cc(Cl)cc87)c6)CC5)nc(N5CCN(CC(=O)NCCOCCOCCOCCNS(=O)(=O)c6cccc([C@@H]7CN(C)Cc8c(Cl)cc(Cl)cc87)c6)CC5)n4)CC3)c2)C1`, for which the concentration for half-maximal inhibition (IC50) was 251 nM.
The figure for `CN1Cc2c(Cl)cc(Cl)cc2[C@H](c2cccc(S(=O)(=O)NCCOCCOCCOCCNC(=O)NCCN(CCNC(=O)NCCOCCOCCOCCNS(=O)(=O)c3cccc([C@@H]4CN(C)Cc5c(Cl)cc(Cl)cc54)c3)CCNC(=O)NCCOCCOCCOCCNS(=O)(=O)c3cccc([C@@H]4CN(C)Cc5c(Cl)cc(Cl)cc54)c3)c2)C1` is 126 nM.
Take `CN1Cc2c(Cl)cc(Cl)cc2[C@H](c2cccc(S(=O)(=O)NCCOCCOCCNC(=O)NCCN(CCNC(=O)NCCOCCOCCNS(=O)(=O)c3cccc([C@@H]4CN(C)Cc5c(Cl)cc(Cl)cc54)c3)CCNC(=O)NCCOCCOCCNS(=O)(=O)c3cccc([C@@H]4CN(C)Cc5c(Cl)cc(Cl)cc54)c3)c2)C1`: the IC50 was 2510 nM.
The same measure for `CN1Cc2c(Cl)cc(Cl)cc2[C@H](c2cccc(S(=O)(=O)NCCOCCOCCOCCNC(=O)NCCN3CCN(c4nc(N5CCN(CCNC(=O)NCCOCCOCCOCCNS(=O)(=O)c6cccc([C@@H]7CN(C)Cc8c(Cl)cc(Cl)cc87)c6)CC5)nc(N5CCN(CCNC(=O)NCCOCCOCCOCCNS(=O)(=O)c6cccc([C@@H]7CN(C)Cc8c(Cl)cc(Cl)cc87)c6)CC5)n4)CC3)c2)C1`: 200 nM.
The same measure for `NCCOCCOCCNS(=O)(=O)c1ccc(O[C@H]2c3cc(Cl)cc(Cl)c3C[C@@H]2N2CCCCC2)cc1`: less than 10000 nM; for `CN1Cc2c(Cl)cc(Cl)cc2[C@H](c2cccc(S(=O)(=O)NCCOCCOCCOCCNC(=O)CN(CCN(CC(=O)O)CC(=O)NCCOCCOCCOCCNS(=O)(=O)c3cccc([C@@H]4CN(C)Cc5c(Cl)cc(Cl)cc54)c3)CC(=O)O)c2)C1`: 10 nM.
As for `CN1Cc2c(Cl)cc(Cl)cc2[C@H](c2cccc(S(=O)(=O)NCCOCCOCCOCCNC(=O)CN(CCN(CC(=O)NCCOCCOCCOCCNS(=O)(=O)c3cccc([C@@H]4CN(C)Cc5c(Cl)cc(Cl)cc54)c3)CC(=O)NCCOCCOCCOCCNS(=O)(=O)c3cccc([C@@H]4CN(C)Cc5c(Cl)cc(Cl)cc54)c3)CCN(CC(=O)NCCOCCOCCOCCNS(=O)(=O)c3cccc([C@@H]4CN(C)Cc5c(Cl)cc(Cl)cc54)c3)CC(=O)NCCOCCOCCOCCNS(=O)(=O)c3cccc([C@@H]4CN(C)Cc5c(Cl)cc(Cl)cc54)c3)c2)C1`, the IC50 is 501 nM.
The same measure for `CN1Cc2c(Cl)cc(Cl)cc2[C@H](c2cccc(S(=O)(=O)NCCOCCOCCOCCNC(=O)CN(CC(=O)NCCOCCOCCOCCNS(=O)(=O)c3cccc([C@@H]4CN(C)Cc5c(Cl)cc(Cl)cc54)c3)[C@@H]3CCCC[C@H]3N(CC(=O)NCCOCCOCCOCCNS(=O)(=O)c3cccc([C@@H]4CN(C)Cc5c(Cl)cc(Cl)cc54)c3)CC(=O)NCCOCCOCCOCNS(=O)(=O)c3cccc([C@@H]4CN(C)Cc5c(Cl)cc(Cl)cc54)c3)c2)C1`: 316 nM; for `CCOCCOCCOCCNC(=O)CN(C)CC(=O)NCCOCCOCCOCCNS(=O)(=O)c1ccc(O[C@H]2c3ccccc3C[C@@H]2N2CCCCC2)cc1`: 44.7 nM; for `CCOCCOCCOCCOCCC(=O)NCCOCCOCCNS(=O)(=O)c1ccc(OC2c3ccccc3C[C@@H]2N2CCCCC2)cc1` (stereo not given in full): 50.1 nM.
The figure for `CCOCCOCCOCCOCCC(=O)NCCOCCOCCOCCNS(=O)(=O)c1ccc(O[C@H]2c3ccccc3C[C@@H]2N2CCCCC2)cc1` is 35.5 nM; for `CCOCCOCCOCCNC(=O)CN(CCN(CC(=O)O)CC(=O)NCCOCCOCCOCCNS(=O)(=O)c1ccc(O[C@H]2c3ccccc3C[C@@H]2N2CCCCC2)cc1)CC(=O)O` it is 22.4 nM.
The same measure for `CCOCCOCCOCCNC(=O)[C@H](O)[C@@H](O)C(=O)NCCOCCOCCOCCNS(=O)(=O)c1ccc(O[C@H]2c3ccccc3C[C@@H]2N2CCCCC2)cc1`: 20 nM; for `CCOCCN(CC(=O)NCCOCCOCCOCCNS(=O)(=O)c1cccc([C@@H]2CN(C)Cc3c(Cl)cc(Cl)cc32)c1)CC(=O)NCCOCCOCCOCCNS(=O)(=O)c1cccc([C@@H]2CCN(C)c3c(Cl)cc(Cl)cc32)c1`: 63.1 nM.
Turning to `CN(CCCNC(=O)NCCOCCOCCOCCNS(=O)(=O)c1cccc([C@@H]2CN(C)Cc3c(Cl)cc(Cl)cc32)c1)CCCNC(=O)NCCOCCOCCOCCNS(=O)(=O)c1cccc([C@@H]2CN(C)Cc3c(Cl)cc(Cl)cc32)c1`, the IC50 is 39.8 nM.
The same measure for `CCOCCOCCOCCNC(=O)NCCCCNC(=O)NCCOCCOCCOCCNS(=O)(=O)c1ccc(O[C@H]2c3ccccc3C[C@@H]2N2CCCCC2)cc1`: 39.8 nM.
